Test results reported in US20040152650A1, “Preventing ischemia-induced cell damage” (priority 2002, published 2004).

Columns and labels:
cardiac myocytes [1] = test: DNA fragmentation in cardiac myocytes subjected to hypoxia-acidosis; type: cell-based, rat; details: for Fragmentation of cardiac myocyte DNA by hypoxia-acidosis with MPTP inhibitor: 48 h time point, DUB 200 μM; for protection against DNA fragmentation with MPTP inhibitor: after 72 h hypoxia-acidosis
Experimental: Cardiac Myocyte Culture and Hypoxia. Methods utilized for the isolation and culture of primary neonatal rat cardiac myocytes and exposure to hypoxia have been described previously (28;29). Experiments were performed in defined serum-free DMEM/M-199 (4:1) medium. Oxygen was continuously monitored and maintained at <10 mm Hg.
(§1) Quantitative Analysis of Apoptosis. Cells were examined for morphologic evidence of apoptosis or necrosis by staining with anti-myosin antibody and the fluorescent DNA-binding dyes Hoechst 33342 and propidium iodide (PI), exactly as previously described (26;30). Genomic DNA fragmentation analyses were also as described previously (26;30).
Antisense. Antisense oligonucleotides were complementary to bases 10-40 and 600-630 of the BNIP3 gene; sequences 5′[…] (SEQ ID NO:1) and 5′[…] (SEQ ID NO:2) respectively. Random sequence oligonucleotides contained the same bases in a scrambled sequence. FITC-tagged oligonucleotides (2 μM final of each) in DMEM were mixed with lipofectamine (0.1 μg/ml, final concentration) and incubated with cardiac myocytes at 37° C. for 8 hours before treatments. Immediately before exposing to hypoxia, fresh medium with oligonucleotides was added. Fluorescence was visualized after 24, 36, and 48 hrs of exposure to hypoxia. Fresh oligonucleotides (400 nM) were added at 24 and 36 hrs.

cardiac myocytes [2] = test: Peptide protection against hypoxia-acidosis death (DNA fragmentation analyses); type: cell-based, rat; details: peptide 10 PM (20 μg/ml); for protection against hypoxia-acidosis death: 24-48 h hypoxia with acid accumulation; for protection (quantitative DNA fragmentation analyses): n=3
Experimental: as §1
Peptides were added to cardiac myocyte cultures at a concentration of 10 PM (20 μg/ml) in serum-free defined medium (DMEM/high glucose/TIB) as described previously (26). Control cultures contained 20 μg/ml BSA. Cultures were exposed to 24-48 h of hypoxia with acid accumulation, also as described previously (26). The results using peptide 1 (23 aa N-BNIP3) are shown in FIG. 7 (−is control +is with peptide treatment).

Row | Compound | Fragmentation of cardiac myocyte DNA by hypoxia-acidosis with MPTP inhibitor (cardiac myocytes [1]) | protection against DNA fragmentation with MPTP inhibitor (cardiac myocytes [1]) | protection against hypoxia-acidosis death (cardiac myocytes [2]) | protection (quantitative DNA fragmentation analyses) (cardiac myocytes [2]; 24 h hypoxia with acid accumulation) [%] | protection (quantitative DNA fragmentation analyses) (cardiac myocytes [2]; 48 h hypoxia with acid accumulation) [%]
1 | CO[C@H](C/C=C\C=C\CC/C=C/C[C@H](C)/C=C/C(=C\C(=O)O)CC(=O)O)/C(C)=C\C=C(/C)C(=O)O [BA, bongrekic acid] | blocked | mediated protection | – | – | –
2 | CCCCCCCCCCC1=C(C)C(=O)C(OC)=C(OC)C1=O [DUB, decylubiquinone] | blocked | mediated protection | – | – | –
3 | GRKKRRQRRRPPQC-----MSQSGEENLQGSWVELHFSNGNG-(C-term) (GRKKRRQRRRPPQCMSQSGEENLQGSWVELHFSNGNG; Synthetic Peptide Fragments) [Peptide 1, TAT-peptide containing N-terminal amino acids 1-23 of BNIP3] | – | – | strong and significant protection | > 50 | > 50
4 | GRKKRRQRRRPPQC----GDMEKILLDAQHESGRSSKSSHCDSP-(C-term) (GRKKRRQRRRPPQCGDMEKILLDAQHESGRSSKSSHCDSP; Synthetic Peptide Fragments) [Peptide 2, TAT-peptide containing N-terminal amino acids 24-49 of BNIP3] | – | – | less effective | – | –
